Test results from patent publication US20250034127A1, “AUTOPHAGY INDUCING COMPOUNDS AND USES THEREOF, IN PARTICULAR FOR DISEASES OF THE CNS” (Samsara Therapeutics Inc., priority 2021, published 2025).
Like-named read-outs stand apart in the source and are kept apart here.

Experiments:
[1] = system: primary spinal cord lower motor neurons (MNs) from SOD1 G93A Tg rats; test: Cellular model of Amyotrophic Lateral Sclerosis (glutamate injury); type: cell-based, rat
Experimental: Compounds 157 (particularly) preferred), 185 and 196 were selected example compounds if this invention to evaluate in this model. This model (run by Neuro-Sys SAS, France) evaluates the protective effects of test compounds on primary spinal cord lower motor neurons (MNs) from SOD1 G93A Tg rats, after a glutamate injury. The MNs are pre-treated with the test compounds for 1 hour prior to exposure to glutamate, and readouts are measured 24 hours later. This model functions as an in vitro model of Amyotrophic Lateral Sclerosis. […] Any substances which can attenuate one or more of these effects can be considered to have protective effects in the model and may be useful as a new therapeutic agent for the treatment or prevention of ALS.
Genotyping of SOD1 Tg embryos: Pregnant female rat SODIG93A (Sprague Dawley, Taconic), of 14 days of gestation were obtained fromTaconic Bioscience. On the day of the dissection (from pregnant females at 14 days of gestation), a piece of each embryo brain (˜3 mm) was placed in a 2 mL tube free DNase with a new scalpel. The DNA was extracted with the SYBR Green Extract-N-Amp tissue PCR kit (Sigma Aldrich). Briefly, 120 μL of extraction solution was put on each piece of embryo heads. Then, they were incubated for 10 min at room temperature. At the end of this incubation period, the heads were incubated for 5 min at 95° C. Immediately after this last incubation, 100 μL of neutralizing solution was added; each DNA extract was diluted at 1/40 and stored at +4° C. until use. SOD1G93A gene was determined using genomic fragment with human SOD1 primers (5′-[…]-3′ (SEQ ID NO: 1); 5′-[…]-3′ (SEQ ID NO: 2)). The SOD1 primers were diluted at 3 μM in sterile ultrapure water. Briefly, a mix for PCR was prepared with ultrapure water (4 μL per sample), primer at 3 μM (2 μL per sample) and Master Mix (10 μL per sample). In a PCR 96 wells plate, 16 μL of PCR mix was added in each well. 4 μL of each diluted DNA was added according to a plan deposit. The RT-PCR was ran using the CFX96 Biorad RT-PCR system, using the following program: Initial denaturation (95° C., 20 sec)/45 cycles (95° C., 10 sec; 65° C., 10 sec; 72° C., 30 sec)/Melt curve (95° C., 15 sec; 64° C., 1 min; 90° C., 30 sec; 60° C. 15 sec). The amplification plots and melt curves were analyzed with the Biorad software. The results for each sample were compared to negative control (ultrapure water) and to the positive control (DNA from Tg embryos).
Rat spinal cord motor neurons (MNs) were be cultured as described by Wang et al. 2013 and Boussicault et al., 2020. Briefly, pregnant female rats of 14 days gestation (Sprague Dawley; Taconic) were killed using a deep anesthesia with CO2 chamber and a cervical dislocation. Then, fetuses were removed from the uterus and immediately placed in ice-cold L15 Leibovitz medium with a 2% penicillin (10,000 U/ml) and streptomycin (10 mg/ml) solution (PS) and 1% bovine serum albumin (BSA).
Spinal cords were treated for 20 min at 37° C. with a trypsin-EDTA solution at a final concentration of 0.05% trypsin and 0.02% EDTA. The dissociation was stopped by addition of Dulbecco's modified Eagle's medium (DMEM) with 4.5 g/liter of glucose, containing DNAse I grade II (final concentration 0.5 mg/mL) and 10% fetal calf serum (FCS). Cells were mechanically dissociated by three forced passages through the tip of a 10-ml pipette. Cells were then centrifuged at 515×g for 10 min at 4° C. The supernatant was discarded, and the pellet was resuspended in a defined culture medium consisting of Neurobasal medium with a 2% solution of B27 supplement, 2 mmol/liter of L-glutamine, 2% of PS solution, and 10 ng/ml of brain-derived neurotrophic factor (BDNF). Viable cells were counted in a Neubauer cytometer, using the trypan blue exclusion test. The cells were seeded at a density of 20,000 per well in 96-well plates precoated with poly-L-lysine and will be cultured at 37° C. in an air (95%)—CO2 (5%) incubator. […]

[2] = system: primary culture of dopaminergic Tyrosine hydroxylase (TH)-positive neurons; test: Cellular model of Parkinson's disease (MPTP/MPP+ injury); type: cell-based, rat; conditions: for decrease in α-syn area per dopaminergic TH positive neuron / increase in the length of the neurite network of dopaminergic TH positive neurons / increase in the number of dopaminergic TH positive neurons: compared to MPP+ injury alone
From the text: This model (run by Neuro-Sys SAS, France) is based on a primary culture of dopaminergic Tyrosine hydroxylase (TH)-positive neurons injured with the dopaminergic neurons-specific toxin (DA-toxin) 1-methyl-4-phenyl-1,2,3,6 tetrahydropyridine (MPTP, a prodrug of MPP^+) (Dauer and Przedborski, 2003). Any substances reducing DA-toxin neurotoxicity may be useful as a new therapeutic agent for the treatment or prevention of PD.
Primary culture of mesencephalic neurons: Rat dopaminergic neurons were cultured as described by Visanji et al., 2008 and Callizot et al., 2019. Briefly, pregnant female rat (Wistar) of 15 days of gestation were killed using a deep anesthesia with CO2 chamber and a cervical dislocation. The midbrains obtained from 15-day-old rat embryos (Janvier, France) were dissected under a microscope. The embryonic midbrains will be removed and placed in ice-cold medium of Leibovitz (L15) containing 2% of Penicillin-Streptomycin (PS) and 1% of bovine serum albumin (BSA). The ventral portion of the mesencephalic flexure, a region of the developing brain rich in dopaminergic neurons, was used for the cell preparations.
The midbrains were dissociated by trypsinisation for 20 min at 37° C. (solution at a final concentration of 0.05% trypsin and 0.02% EDTA). The reaction was stopped by the addition of Dulbecco's modified Eagle's medium (DMEM) containing DNAase I grade II (0.5 mg/mL) and 10% of foetal calf serum (FCS). Cells were then mechanically dissociated by 3 passages through a 10 ml pipette. Cells were then centrifuged at 180×g for 10 min at +4° C. on a layer of BSA (3.5%) in L15 medium. The supernatant was discarded, and the cell pellets re-suspended in a defined culture medium consisting of Neurobasal supplemented with B27 (2%), L-glutamine (2 mM) and 2% of PS solution and 10 ng/mL of Brain-derived neurotrophic factor (BDNF) and 1 ng/ml of Glial-Derived Neurotrophic Factor (GDNF). Viable cells were counted in a Neubauer cytometer using the trypan blue exclusion test. The cells were seeded at a density of 40,000 cells/well in 96 well-plates (pre-coated with poly-L-lysine) and maintained in a humidified incubator at 37° C. in 5% CO2/95% air atmosphere. Half of the medium was changed every 2 days with fresh medium. The wells of first and last lines and columns […] (to avoid any edge effect) and were be filled with sterile water.
• i) Pre-incubation. On day 6 of culture, the test compounds were dissolved in PBS or DMSO and incubated for 1 hour before the MPTP exposure. • ii) Injury. One hour after the application of test compound, MPTP was added to a final concentration of 4 μM, diluted in control medium still in presence of compounds/inhibitors for 48 h. Test compounds were tested on one culture in 96-well plate (n=6 culture wells per condition).
Immunostaining: TH and α-Synuclein. 48 Hours after intoxication, the cell culture supernatant was removed, and the cells were fixed by a solution of 4% paraformaldehyde in PBS, pH=7.3 for 20 min at room temperature. The cells were washed twice in PBS, and then permeabilized. Non-specific sites were blocked with a solution of PBS containing 0.1% of saponin and 1% FCS for 15 min at room temperature. The cultures were incubated with: (a) monoclonal anti-Tyrosine Hydroxylase (TH) antibody produced in mouse at dilution of 1/10000 in PBS containing 1% FCS, 0.1% saponin, for 2 hours at room temperature, and (b) polyclonal anti-alpha synuclein (α-synuclein) antibody produced in rabbit at dilution of 1/200 in PBS containing 1% FCS, 0.1% saponin, for 2 h at room temperature.
Automatic computer analysis. For each condition, 20 pictures (representing the whole well area) were automatically taken using ImageXpress® (Molecular Devices) at 10× magnification (20 pictures, for TH and α-synuclein into TH neurons) using the same acquisition parameters. From images, analyses was directly and automatically performed by MetaXpress® (Molecular Devices). […]

[3] = Bioavailability / brain and plasma pharmacokinetics after oral dosing; type: in vivo; conditions: CD1 mice; for half-life / bioavailability: mouse
From the text: The compounds according to the invention have good properties for oral dosing and readily cross the blood brain barrier.

[4] = brain, oral dose of 30 mg/kg, read-out: half-life in the brain (converted)
[5] = plasma, oral, 30 mg/kg, read-out: half-life in plasma (converted)

| Structure (SMILES) | effects in the in vitro model of ALS [1] | increase in neurite network length ([1]; 0.1 μM, 0.5 μM and 1 μM, compared to glutamate injury alone) | abnormal TDP43 accumulation in the cytoplasm resulting from glutamate injury ([1]; 0.1 μM, 0.5 µM, 1 μM and 10 μM) | effects in the in vitro model of PD based on MPP+ injury [2] | decrease in α-syn area per dopaminergic TH positive neuron ([2]; 1 μM) | increase in the length of the neurite network of dopaminergic TH positive neurons ([2]; 1 μM) | increase in the number of dopaminergic TH positive neurons ([2]; 1 μM) | maximum concentration in brain plasma ([3]; oral dose of 30 mg/kg) | time of maximum concentration in brain plasma ([3]; oral dose of 30 mg/kg) | half-life [3, 4] | bioavailability ([3]; plasma, 30 mg/kg, oral) | half-life [3, 5] | abnormal cytoplasmic TDP-43 accumulation resulting from glutamate injury ([1]; 0.1 μM, 0.5 µM and 1 μM) | decrease in α-syn area per dopaminergic TH positive neuron ([2]; 500 nM, 1 μM and 10 μM) | increase in the length of the neurite network of dopaminergic TH positive neurons ([2]; 500 nM, 1 μM and 10 μM) | increase in the number of dopaminergic TH positive neurons ([2]; 500 nM, 1 μM and 10 μM) |
| --- | --- | --- | --- | --- | --- | --- | --- | --- | --- | --- | --- | --- | --- | --- | --- | --- |
| C[C@H]1CN(C(=O)c2csc(-c3cnn(-c4ccccc4)c3)n2)CCN1 [Compound 157, (3S)-3-methyl-1-[2-(1-phenyl-1H-pyrazol-4-yl)-1,3-thiazole-4-carbonyl]piperazine] | positive effects | > 20% | fully abolished | positive effects | 21% | 35% | 27% | 2153 ng/mL | 1.5 h | 1.8 h | 81% | 1.8 h | – | – | – | – |
| CCN1CCC(NC(=O)c2csc(-c3cnn(-c4ccccc4)c3)n2)CC1 [Compound 185, N-(1-ethylpiperidin-4-yl)-2-(1-phenyl-1H-pyrazol-4-yl)-1,3-thiazole-4-carboxamide] | positive effects | – | – | positive effects | – | – | – | 3457 ng/mL | 1 h | 13 h | 100% | 18 h | fully abolished | > 14% | > 27% | > 22% |
